System: Thiobacillus ferrooxidans
Experiment: Bacterial dissolution of pyrite layers with Thiobacillus ferrooxidans in the presence of cysteine
Conditions: for lag phase of bacterial pyrite dissolution: pH 1.6; for pyrite corrosion level (or dissolution rate): pH 1.6, S^o-FeS2 pyrite layer 100 nm, after 10-11 days
Method: Each time, 1 cm^3 of pyrite layers 100 nm in thickness (referred to as S^o-FeS2), prepared according to Example 1 using elemental sulfur as precursor, was added with 300 μl of aqueous solutions or suspensions of Thiobacillus ferrooxidans cells and cysteine at concentrations of from 8×10^−2 to 8×10^−5 M in an in situ pyrite culture chamber. The pH value of the solutions was adjusted to 1.6 using Tuovinen buffer (for 1 liter: KH2PO4=0.4 g, MgSO4.7H2O=0.4 g, (NH4)2SO4=0.4 g, […], with no iron(II) being added) [cf., Tuovinen and Kelly, Arch. Mikrobiol. 88, 285-298 (1973)].
FIG. 1 is a plot of the pyrite corrosion level (or dissolution rate) [%] as a function of time [days] for the various solutions.

SMILES: N[C@@H](CS)C(=O)O [cysteine]
- lag phase of bacterial pyrite dissolution (8×10^−4 M cysteine in solution): no longer occurs
- pyrite corrosion level (or dissolution rate) (8×10^−4 M cysteine in solution): 100%
- lag phase of bacterial pyrite dissolution (8×10^−5 M cysteine in solution): no longer occurs
- pyrite corrosion level (or dissolution rate) (8×10^−5 M cysteine in solution): 100%
